In data set [1] the test system is NIH3T3 fibroblasts. As to the kind of experiment: Peroxidation of membrane lipids, MDA by TBA method. The format is cell-based, mouse. The following applies: FW = fresh weight. Here is the method:
A typical symptom associated with aging is the direct consequence of increased concentrations of reactive oxygen species and lipid peroxidation. […] MDA levels were measured using thiobarbituric acid (TBA method). […] The crude extract was centrifuged at 10,000×g for 5 minutes and 100 μl aliquots of the supernatant were mixed with 100 μl of 0.5% (w/v) TBA containing 0.1% (w/v) trichloroacetic acid. The resulting solution was then incubated for 30 min at 95° C. The samples were rapidly cooled on ice and centrifuged for 5 minutes at 1000×g. […] The newly prepared derivatives of the general formula thus have a protective function against the negative effects of reactive oxygen species that accumulate strongly in the tissues.

Data set [2] relates to BJ (human foreskin fibroblasts). Description: Calcein AM cytotoxicity, BJ. The following applies: read-out: Cytotoxicity IC50, BJ; 72 hours incubation, Calcein AM; highest concentration […].
Description: (§1) One of the parameters used, as the basis for cytotoxicity assays, is the metabolic activity of viable cells. For example, a microtiter assay, which uses the Calcein AM, is now widely used to quantitate cell proliferation and cytotoxicity. […] Because only metabolically active cells cleave Calcein AM, these assays detect viable cells exclusively. The quantity of reduced Calcein AM corresponds to the number of vital cells in the culture.
(§2) Mouse fibroblasts NIH3T3; mouse immortalized bone marrow macrophages B2.4 and B10A.4, and BJ (human foreskin fibroblasts) were used for routine screening of compounds. The cells were maintained in Nunc/Corning 80 cm^2 plastic tissue culture flasks and cultured in cell culture medium (DMEM with 5 g/l glucose, 2 mM glutamine, 100 U/ml penicillin, 100 μg/ml streptomycin, 10% fetal calf serum and sodium bicarbonate).
(§3) The cell suspensions that were prepared and diluted according to the particular cell type and the expected target cell density (2.500-30.000 cells per well based on cell growth characteristics) were added by pipette (80 μl) into 96/well microtiter plates. Inoculates were allowed a pre-incubation period of 24 hours at 37° C. and 5% CO2 for stabilisation. Four-fold dilutions of the intended test concentration were added at time zero in 20 μl aliquots to the microtiter plate wells. Usually, the compound tested was evaluated at six 4-fold dilutions. […] All compound concentrations were examined in duplicates. Incubations of cells with the tested compounds lasted for 72 hours at 37° C., in 5% CO2 atmosphere and 100% humidity. At the end of the incubation period, the cells were assayed by using Calcein AM. Ten microliters of the stock solution were pipetted into each well and incubated for 1 hour. Fluorescence (FD) was measured with the Labsystem FIA Reader Fluoroscan Ascent (UK).
Data set [3] deals with B10A.4. As to the kind of experiment: Calcein AM cytotoxicity, B10A.4 (first column). To be noted: read-out: Cytotoxicity IC50, B10A.4; 72 hours incubation, Calcein AM; highest concentration […].
Description: as §1, §2, §3
Data set [4] has as its system NIH-3T3. As to the kind of experiment: Calcein AM cytotoxicity, NIH-3T3. To be noted: read-out: Cytotoxicity IC50, NIH-3T3; 72 hours incubation, Calcein AM; highest concentration […].
Description: as §1, §2, §3
Data set [5] has as its system NIH-3T3.
Description: as §1, §2, §3
The test system of data set [6] is B10A.4.
Description: as §1, §2, §3
Data set [7] relates to BJ (human foreskin fibroblasts).
Description: as §1, §2, §3
Data set [8] can be described thus: Radical scavenging activity determined by ORAC. The following applies: relative to trolox; Mean ± SD (n = 3). Here is the method: The ability of compounds to scavenge free radicals in vitro was determined by Oxygen Radical Absorbance Capacity (ORAC) method. In brief, fluorescein (100 μl, […]) and 25 μl of compound solution were added into each working well in a 96-well microplate preincubated at 37° C. Thereafter, 25 μL of 250 mM AAPH was quickly added, microplate was shaken for 5 s and the fluorescence (Ex. 485 nm, Em. 510 nm) was read every 3 min over 90 min by using microplate reader Infinite 200 (TECAN, Switzerland). The net area under the curve was used to express antioxidant activity relative to trolox which was used as a standard.

Data set [9] has as its system Rabbits (New Zealand Albino breed). The following applies: New Zealand Albino, rabbit, in vivo, 4 h. Here is the method: The test substance 114 was tested in Animal skin irritation test. Rabbits (New Zealand Albino breed) were used for the test. The test was performed according to ČSN EN ISO 10993 (Březen 2014): Biologické hodnoceni zdravotnických prostředků—část 10: Zkoušky dráždivosti a senzibilizace kůže, článek 6.3 Zkouška dráždivosti na zviřatech (Biological evaluation of medical devices—Part 10: Tests for irritation and delayed-type hypersensitivity). A dose 0.5 g of the test substance was applied to the skin of the back on each side of each rabbit. […] At first the one rabbit (test animal. No. 16) was used. Two other rabbits (rabbit No. 17 and No. 18) were used in confirmatory test. At the end of the contact time (4 hours) the dressings were removed and animals were examined for signs of erythema and oedema, and the response was evaluated at 1, 24, 48 and 72 hours afterpatches removal.

Consider 32 compounds from patent US11643413B2, “9-(2-oxacycloalkyl)-9H-purine-2,6-diamine derivatives and their use for the treatment of skin disorders” (UNIVERZITA PALACKEHO V OLOMOUCI, priority 2017, dated 2023).

Structures can show the parent of a compound that is named as a salt. Where two headings read alike, the source gives them in different places. Some results are limits rather than exact numbers.

What is called IC50 is the concentration that gives 50% inhibition. In the case of `CN(C)c1nc(NCc2ccco2)c2ncn(C3CCO3)c2n1` (stereo not drawn) [Compound 3], in data set [1], the MDA is reported as 12.4 nmol/g FW. Further, the IC50 in data set [2], in data set [3] and in data set [4] was over 167 µM in each case.

Compound `CCN(CC)c1nc(NCc2ccccc2)c2ncn(C3CCO3)c2n1` (stereo not drawn) [Compound 9] yielded an MDA in data set [1] of 12.2 nmol/g FW. The IC50 in data set [2], in data set [3] and in data set [4] was over 167 µM each time.

`CNc1nc(NCc2cc(C)co2)c2ncn(C3CCCO3)c2n1` (stereo not drawn) [Compound 39]: the MDA in data set [1] was 11.4 nmol/g FW. Moreover, the 50% inhibitory concentration (IC50) in data set [5], in data set [6] and in data set [7] was over 167 µM in each case.

In turn, `CCN(CC)c1nc(NCc2ccc(C)o2)c2ncn(C3CCCO3)c2n1` (stereo not drawn) [Compound 47] yielded an MDA in data set [1] of 12.5 nmol/g FW. Also, the IC50 in [5], in data set [6] and in data set [7] was over 167 µM throughout.

In data set [1], `COc1coc(CNc2nc(NCCN(C)C)nc3c2ncn3C2CCCO2)c1` (stereo not drawn) [Compound 58] displayed an MDA of 11.4 nmol/g FW. Further, the 50% inhibitory concentration (IC50) in data set [5], in data set [6] and in data set [7] was over 167 µM each time.

For `CNc1nc(NCc2ccc(OC)o2)c2ncn(C3CCCO3)c2n1` (stereo not drawn) [Compound 59], in data set [1], the MDA turned out to be 11.5 nmol/g FW. Moreover, the IC50 in data set [5], in data set [6] and in data set [7] was over 167 µM in each case.

With `CCNc1nc(NCc2ccc(OC)o2)c2ncn(C3CCCO3)c2n1` (stereo not drawn) [Compound 60], in [1], the MDA was 12.2 nmol/g FW. The IC50 in data set [5], in data set [6] and in [7] was over 167 µM throughout.

On to `CNc1nc(NCc2ccccc2)c2ncn(C3CCCO3)c2n1` (stereo not drawn) [Compound 64, 2-(Methylamino)-6-benzylamino-9-(tetrahydrofuran-2-yl)-9H-purine], for which the “ORAC (compound/trolox)” value in data set [8] worked out at 0.24 ± 0.001.

Take `CN(C)c1nc(NCc2cccc(O)c2)c2ncn(C3CCCO3)c2n1` (stereo not drawn) [Compound 71, 2-(Dimethylamino)-6-(3-hydroxybenzylamino)-9-(tetrahydrofuran-2-yl)-9H-purine]: the “ORAC (compound/trolox)” value in data set [8] was 5.212 ± 0.238.

For the compound `CCNc1nc(NCc2ccc(O)cc2)c2ncn(C3CCCO3)c2n1` (stereo not drawn) [Compound 75], the MDA in data set [1] came out at 11.7 nmol/g FW. The concentration for half-maximal inhibition (IC50) in [5], in data set [6] and in [7] was over 167 µM each time.

For the compound `CN(C)c1nc(NCc2ccc(O)cc2)c2ncn(C3CCCO3)c2n1` (stereo not drawn) [Compound 76, 2-(Dimethylamino)-6-[(4-hydroxybenzyl)amino]-9-(tetrahydrofuran-2-yl)-9H-purine], in data set [8], the “ORAC (compound/trolox)” value worked out at 0.192 ± 0.005.

On to `CCN(CC)c1nc(NCc2cccc(OC)c2)c2ncn(C3CCCO3)c2n1` (stereo not drawn) [Compound 82], for which the MDA in data set [1] was 10.9 nmol/g FW. Also, the half-maximal inhibitory concentration (IC50) in data set [5], in [6] and in data set [7] was over 167 µM throughout.

In data set [1], `CCNc1nc(NCc2ccc(OC)cc2)c2ncn(C3CCCO3)c2n1` (stereo not drawn) [Compound 85] returned an MDA of 11.1 nmol/g FW. The IC50 in [5], in data set [6] and in data set [7] was over 167 µM throughout.

In data set [1], `CCN(CC)c1nc(NCc2ccc(OC)cc2)c2ncn(C3CCCO3)c2n1` (stereo not drawn) [Compound 87] registered an MDA of 10.4 nmol/g FW. In addition, the IC50 in data set [5], in data set [6] and in [7] was over 167 µM throughout.

As for `COc1cc(CNc2nc(N(C)C)nc3c2ncn3C2CCCO2)ccc1O` (stereo not drawn) [Compound 89, 2-(Dimethylamino)-6-[(4-hydroxy-3-methoxybenzyl)amino]-9-(tetrahydrofuran-2-yl)-9H-purine], in data set [8], the “ORAC (compound/trolox)” value was determined as 4.359 ± 0.183.

`CCN(CC)c1nc(NCC=C(C)C)c2ncn(C3CCCO3)c2n1` (stereo not drawn) [Compound 93] came in with an MDA in data set [1] of 10.5 nmol/g FW. The half-maximal inhibitory concentration (IC50) in [5], in data set [6] and in data set [7] was over 167 µM throughout.

In turn, `C/C(=C\CNc1nc(NCCN(C)C)nc2c1ncn2C1CCCO1)CO` (stereo not drawn) [Compound 99] returned an MDA in data set [1] of 10.2 nmol/g FW. The IC50 in data set [5], in [6] and in data set [7] was over 167 µM in each case.

Take `CCNc1nc(NC/C=C(/C)CO)c2ncn(C3CCCO3)c2n1` (stereo not drawn) [Compound 101]: in data set [1], the MDA is 10.6 nmol/g FW. The half-inhibitory concentration (IC50) in data set [5], in data set [6] and in data set [7] was over 167 µM each time.

Compound `CCN(CC)c1nc(NC/C=C(/C)CO)c2ncn(C3CCCO3)c2n1` (stereo not drawn) [Compound 103] registered an MDA in data set [1] of 10.1 nmol/g FW. The IC50 in [5], in data set [6] and in data set [7] was over 167 µM throughout.

Consider `C/C(=C/CNc1nc(NCCN(C)C)nc2c1ncn2C1CCCO1)CO` (stereo not drawn) [Compound 104], for which, in [1], the MDA is reported as 9.6 nmol/g FW. The 50% inhibitory concentration (IC50) in data set [5], in data set [6] and in data set [7] was over 167 µM each time.

`CNc1nc(NCCC(C)CO)c2ncn(C3CCCO3)c2n1` (stereo not drawn) [Compound 105] yielded an MDA in [1] of 10.6 nmol/g FW. For the same compound, the IC50 in [5], in data set [6] and in data set [7] was over 167 µM throughout.

For the compound `CC(CO)CCNc1nc(N(C)C)nc2c1ncn2C1CCCO1` (stereo not drawn) [Compound 107], the MDA in [1] stood at 10.3 nmol/g FW. For the same compound, the 50% inhibitory concentration (IC50) in data set [5], in [6] and in data set [7] was over 167 µM in each case.

For `CCN(CC)c1nc(NCCC(C)CO)c2ncn(C3CCCO3)c2n1` (stereo not drawn) [Compound 108], in [1], the MDA is recorded as 9.7 nmol/g FW. The IC50 in data set [5], in data set [6] and in data set [7] was over 167 µM in each case.

With `CNc1nc(NCc2ccco2)c2ncn(C3CCCCO3)c2n1` (stereo not drawn) [Compound 110, 2-(Methylamino)-6-furfurylamino-9-(tetrahydro-2H-pyran-2-yl)-9H-purine], the “ORAC (compound/trolox)” value in [8] was 0.205 ± 0.032.

Regarding `CCNc1nc(NCc2occc2C)c2ncn(C3CCCCO3)c2n1` (stereo not drawn) [Compound 119], in [1], the MDA was 9.7 nmol/g FW. In addition, the IC50 in [2], in [3] and in data set [4] was over 167 µM each time.

Compound `Cc1coc(CNc2nc(NCCN(C)C)nc3c2ncn3C2CCCCO2)c1` (stereo not drawn) [Compound 127] came in with an MDA in data set [1] of 10.4 nmol/g FW. Besides, the half-inhibitory concentration (IC50) in data set [2], in data set [3] and in [4] was over 167 µM throughout.

For `CNc1nc(NCc2ccc(C)o2)c2ncn(C3CCCCO3)c2n1` (stereo not drawn) [Compound 128, 2-(Methylamino)-6-[(5-methylfurfuryl)amino]-9-(tetrahydro-2H-pyran-2-yl)-9H-purine], the “ORAC (compound/trolox)” value in [8] came to 0.461 ± 0.003.

Consider `Cc1ccc(CNc2nc(NCCN(C)C)nc3c2ncn3C2CCCCO2)o1` (stereo not drawn) [Compound 132], for which, in data set [1], the MDA came out at 10.7 nmol/g FW. In addition, the IC50 in data set [2], in data set [3] and in data set [4] was over 167 µM each time.

For the compound `CN(C)c1nc(NCc2cccc(O)c2)c2ncn(C3CCCCO3)c2n1` (stereo not drawn) [Compound 155, 2-(Dimethylamino)-6-[(3-hydroxybenzyl)amino]-9-(tetrahydro-2H-pyran-2-yl)-9H-purine], the “ORAC (compound/trolox)” value in data set [8] is given as 2.422 ± 0.107.

For `CN(C)c1nc(NCc2ccc(O)cc2)c2ncn(C3CCCCO3)c2n1` (stereo not drawn) [Compound 160, 2-(Dimethylamino)-6-[(4-hydroxybenzyl)amino]-9-(tetrahydro-2H-pyran-2-yl)-9H-purine], in data set [8], the “ORAC (compound/trolox)” value is 0.728 ± 0.016.

With `CCCCCCCCCCCCOS(=O)(=O)O` [lauryl sulfate, reference compound], the “Primary Irritation Index” value in data set [9] came out at 1.67.

As for `Oc1ccccc1CNc1ncnc2nc[nH]c12` [ortho-topolin, reference compound], the values for the 50% inhibitory concentration (IC50) in [5] and in data set [7] were 94.1 µM and 108 µM, respectively.
